The values that follow come from patent US20100286603A1, “KIT AND METHOD FOR PREPARATION OF A DEGARELIX SOLUTION” (priority 2009, published 2010).

Where a SMILES comes first, the peptide text is derived from it. [ ]: non-standard residue; d: D form. The star is where a group is joined. dPhe(4-NHCONH2) = NC(=O)Nc1ccc(C[C@@H](N)C(=O)O)cc1; Dihydroorotyl(S) = O=C1C[C@@H](C(=O)*)NC(=O)N1; dPhe(4-Cl) = N[C@H](Cc1ccc(Cl)cc1)C(=O)O; Phe(4-NH2) = Nc1ccc(C[C@H](N)C(=O)O)cc1; d2Nal = N[C@H](Cc1ccc2ccccc2c1)C(=O)O; Lys(iPr) = CC(C)NCCCC[C@H](N)C(=O)O; d3Pal = N[C@H](Cc1cccnc1)C(=O)O

The nature of data set [1]: Reconstitution of lyophilised Degarelix with water for injection, swirled by hand (laboratory testing). Type of data set: physicochemical. The procedure:
The WFI in the syringe is then transferred into the Degarelix vial (I) and the assembly of vial, needle, and syringe is swirled by hand to ensure that the lyophilised Degarelix has completely gone into solution. […] In laboratory testing, the reconstitution times for hand swirled Degarelix solutions comprising 80 mg and 120 mg of lyophilised Degarelix are about 5 minutes and 7 minutes respectively. The slowest reconstitution times are considerably greater, however, and can be up to 15 minutes. To ensure that the Degarelix drug product has been fully reconstituted, the care-provider is required to swirl the assembly, by hand, for a period of up to 15 minutes. To assess whether the drug has been reconstituted, the care-provider periodically checks the vial to determine whether the solution is completely clear or not.

Data set [2] has as its system testosterone. To be noted: used in a clinical preparation; cited from earlier work.
The nature of data set [3]: Reconstitution of lyophilised Degarelix with water for injection using an automatic swirling machine (laboratory tests). The class given is physicochemical. To be noted: tested for the 80 mg and 120 mg doses. The procedure:
For example, laboratory tests have shown that average reconstitution times when an automatic swirling machine is used are in the region of 0.8 minutes and the slowest times for reconstitution are in the region of 1.25 to 1.5 minutes (tested for the 80 mg and 120 mg doses). This compares well with the present system of swirling by hand, where the slowest times for reconstitution are near to 15 minutes. An automatic mixing apparatus may enable a reconstitution protocol to be formulated in which the Degarelix and WFI are mixed for a relatively short period of time, after which the Degarelix should in the vast majority of cases have gone into solution, as compared with mixing by hand. It is contemplated that the care-provider may check the clarity of the solution after it has been reconstituted with the automatic mixing apparatus and, if fully reconstituted, administer the solution to the patient.

Regarding `CC(=O)N[C@H](Cc1ccc2ccccc2c1)C(=O)N[C@H](Cc1ccc(Cl)cc1)C(=O)N[C@H](Cc1cccnc1)C(=O)N[C@@H](CO)C(=O)N[C@@H](Cc1ccc(NC(=O)[C@@H]2CC(=O)NC(=O)N2)cc1)C(=O)N[C@H](Cc1ccc(NC(N)=O)cc1)C(=O)N[C@@H](CC(C)C)C(=O)N[C@@H](CCCCNC(C)C)C(=O)N1CCC[C@H]1C(=O)N[C@H](C)C(N)=O` [Degarelix] (Ac-[d2Nal][dPhe(4-Cl)][d3Pal]S[Phe(4-NH2)](Dihydroorotyl(S))[dPhe(4-NHCONH2)]L[Lys(iPr)]P[dA]-NH2), the reconstitution time result in data set [1] (80 mg of lyophilised Degarelix) was “about 5 minutes”; in data set [1] (120 mg of lyophilised Degarelix) it was ~7 min. For the same compound, the levels of testosterone result in data set [2] is “reduction in levels of testosterone”. For the same compound, the average reconstitution time in data set [3] is ~0.8 min.
